Measured values reported in patent US20200223889A1, “Bicyclic Compounds Capable of Binding to Melanocortin 4 Receptor” (Novo Nordisk A/S, priority 2017, published 2020).
Read-outs that look alike come from different tables or passages of the source. Starred links: 1 amine or outer side, 2 acyl side, 3 side chain; linkers in the order of their positions; H or OH if unused. Positions of bridges follow the written chain, without caps; N, C: chain ends. Non-standard residues stand in square brackets, D forms with d. Residues, ends and D or L forms follow the SMILES beside them. Pen = CC(C)(S)[C@H](N)C(=O)O; d(hCys) = N[C@H](CCS)C(=O)O; Orn = NCCC[C@H](N)C(=O)O; Thz = O=C(O)[C@@H]1CSCN1; X1 = C(CN[*:2])CS[*:1]

Assays:
human MC4R [1] = molecular target: T1, human MC4R (Homo sapiens, UniProt P32245); experiment: Functional cAMP assay (CisBio HTRF) in BHK cells expressing human MC4R; format: cell-based; conditions: for MC1R/MC4R cAMP EC50 ratio: MC1R cAMP EC50 divided by MC4R cAMP EC50
T1 construct: expressed in transfected cells
Description: In order to assess the potency of the compounds on human MC1R and human MC4R cAMP signalling was measured.
cAMP induction was measured by c-AMPdynamic2 assay, HTRF 62AM4PEC system from CisBio for the human MC1R and human MC4R according to the protocol provided by the vendor. BHK cells expressing the human MC1 or MC4 receptor were generated by stable transfection with expression vectors encoding the cDNA of either MC1R or MC4R.
In details; 25 μl compound—or standard solution were added in the respective wells. Compound was reconstituted in buffer (DMEM w/o phenol red, 10 mM
Hepes, lx Glutamine, 0.1% OV-albumin1, 1 mM IBMX) and serially diluted starting at 2 μM, 10-fold seven times. Dilutions were carried out in the same aforementioned buffer to the desired working concentration ranges (2× higher than the final concentration). 25 μl cell solution was then added and allowed to incubate for 30 min while lightly shaking, at 25° C. […] The provided components for the assay were reconstituted according to the CisBio assay protocol “3.1 supplied reagents and preparation procedure” in MilliQ purification system H2O and diluted 1:20 in lysis buffer. 25 μl cAMP-d2 and 25 μl Cryptate conjugate were added to all wells.
Plates were centrifuged at 1500 rpm for 30 sec and incubated for 1 h, lightly shaking, at 25° C. in a hotel stacker. The plates were read on Mithras LB 940 provided by Berthold Technologies The data were analysed by non-linear regression analysis of binding curves, using the Windows™ program GraphPad™ Prism (GraphPad Software, USA).
The latter is used when no full curve can be obtained in the concentration ranges indicated above.

human MC4R [2] = molecular target: T1, human MC4R; experiment: 125NDP-α-MSH competitive binding to membranes of BHK cells expressing human MC4 receptor (filtration assay); conditions: human MC4R, BHK cell membranes, 125NDP-α-MSH radioligand; read-out: MC4R binding Ki
Description: In Vitro ^125NDP-α-MSH Binding to Recombinant BHK Cells Expressing Human MC4 Receptor (Filtration Assay)
In order to assess the binding affinity of the selected compounds for the human MC4R competitive binding assays was performed with radiolabeled NDP-alpha MSH (^125NDP-α-MSH).
The assay was performed in 96-well filterplates (Unifilter) using BHK cells stably expressing the human MC4 receptor.
The BHK cell membranes were prepared from frozen or fresh cells that were homogenized in 20 mM HEPES pH 7.1, 5 mM MgCl2, 1 mg/ml bacitracin (buffer 1) and centrifuged at 15000 rpm at 4° C., 10 min in a Sorvall RC 5B plus, SS-34 rotor. The supernatant was discarded, and the pellets were re-suspended in buffer 1, homogenized and centrifuged two more times. The final pellets were re-suspended in buffer 1 and the protein concentration was measured and adjusted with buffer 1 to 5 mg/ml and the membrane preparation was kept at −80° C. until assay. The assay was run on a dilution of this cell membrane suspension without any further preparation. The suspension was diluted to give maximally 10% specific binding, i.e. to approx. 50-100 fold dilution, optimized after each membrane preparation. The assay was performed in a total volume of 200 μl: 50 μl of cell suspension, 50 μl of ^125NDP-α-MSH (apx. […] in final concentration), 50 μl of test compound and 50 μl binding buffer were mixed and incubated for 2 h at 25° C. (binding buffer: 25 mM HEPES, pH 7.0, 1 mM CaCl2), 1 mM MgSO4, 1 mM EGTA, 0.005% Tween™ 20 and 0.1% HSA or, alternatively, 0.1% ovalbumin (Sigma; catalogue No. A-5503)). Test compounds were dissolved in 100% DMSO and diluted in binding buffer in a dose range from 1 μM to 0.001 nM. Radiolabelled ligand and membranes were diluted in binding buffer. The incubation was stopped by dilution with 8×100 μl ice-cold 0.9% NaCl. The radioactivity retained on the filters was counted using a Packard Topcounter. The data were analysed by non-linear regression analysis of binding curves, using the Windows™ program GraphPad™ Prism (GraphPad Software, USA).

[3] = BHK cells expressing human MC4R, '>' = highest dose used with no response, read-out: MC4R cAMP EC50

T1 sequence (P32245 whole entry): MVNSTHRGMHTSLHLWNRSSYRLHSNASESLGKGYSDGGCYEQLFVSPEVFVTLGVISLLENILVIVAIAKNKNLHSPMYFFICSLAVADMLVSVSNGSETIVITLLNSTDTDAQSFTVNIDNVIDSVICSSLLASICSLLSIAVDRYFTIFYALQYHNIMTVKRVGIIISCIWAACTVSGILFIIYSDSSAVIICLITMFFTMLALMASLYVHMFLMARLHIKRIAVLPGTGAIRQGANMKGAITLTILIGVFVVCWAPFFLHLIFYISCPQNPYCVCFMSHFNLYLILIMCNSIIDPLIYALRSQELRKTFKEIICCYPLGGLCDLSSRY

EC50 (human MC4R [1]; [3])	Ki (human MC4R [2])	Structure (SMILES)	MC1R/MC4R cAMP EC50 ratio (human MC4R [1])	EC50 (human MC4R [1])
0.26 nM	0.42 nM	CC(=O)N[C@@H](C)C(=O)N[C@@H](Cc1c[nH]cn1)C(=O)N[C@H](Cc1ccccc1)C(=O)N[C@@H](CCCNC(=N)N)C(=O)N[C@@H](Cc1c[nH]c2ccccc12)C(=O)N[C@@H]1CCSSCCCNC(=O)[C@H](Cc2c[nH]c3ccccc23)NC(=O)[C@H](CCCNC(=N)N)NC(=O)[C@@H](Cc2ccccc2)NC(=O)[C@H](Cc2c[nH]cn2)NC(=O)[C@H](C)NC1=O [Chem. 3, c[c[HCys-Ala-His-D-Phe-Arg-Trp- HCys]-Ala-His-D-Phe-Arg-Trp]] (Ac-AH[dF]RW[d(hCys)]AH[dF]RW; linker 6-C via X1)	28	
0.06 nM	0.19 nM	CC(=O)N[C@@H](Cc1c[nH]cn1)C(=O)N[C@H](Cc1ccccc1)C(=O)N[C@@H](CCCNC(=N)N)C(=O)N[C@@H](Cc1c[nH]c2ccccc12)C(=O)N[C@H](C)C(=O)N[C@@H]1CCSSCCCNC(=O)[C@@H](C)NC(=O)[C@H](Cc2c[nH]c3ccccc23)NC(=O)[C@H](CCCNC(=N)N)NC(=O)[C@@H](Cc2ccccc2)NC(=O)[C@H](Cc2c[nH]cn2)NC1=O [Chem. 6, c[c[Cys-His-D-Phe-Arg-Trp-D-Ala- Cys]-His-D-Phe-Arg-Trp-D-Ala]] (Ac-H[dF]RW[dA][d(hCys)]H[dF]RW[dA]; linker 6-C via X1)	39	
0.06 nM	0.47 nM	C[C@@H]1NC(=O)[C@H](C)NC(=O)[C@H](Cc2c[nH]c3ccccc23)NC(=O)[C@H](CCCNC(=N)N)NC(=O)[C@@H](Cc2ccccc2)NC(=O)[C@H](Cc2c[nH]cn2)NC(=O)[C@H](C)NC(=O)[C@H](C)NC(=O)[C@H](Cc2c[nH]c3ccccc23)NC(=O)[C@H](CCCNC(=N)N)NC(=O)[C@@H](Cc2ccccc2)NC(=O)[C@H](Cc2c[nH]cn2)NC1=O [Chem. 7, c[Ala-Ala-His-D-Phe-Arg-Trp-Ala-Ala- His-D-Phe-Arg-Trp]] (cyclo(AAH[dF]RWAAH[dF]RW))	76	
		C[C@@H]1NC(=O)[C@@H]2CSSC[C@H](NC(=O)[C@H](CCCNC(=N)N)NC(=O)[C@H](Cc3c[nH]c4ccccc34)NC(=O)[C@H](CCCNC(=N)N)NC(=O)[C@@H](Cc3ccccc3)NC(=O)[C@H](Cc3c[nH]cn3)NC1=O)C(=O)N[C@@H](C)C(=O)N[C@@H](Cc1c[nH]cn1)C(=O)N[C@H](Cc1ccccc1)C(=O)N[C@@H](CCCNC(=N)N)C(=O)N[C@@H](Cc1c[nH]c3ccccc13)C(=O)N[C@@H](CCCNC(=N)N)C(=O)N2 [Chem. 69, c[c[Cys-Ala-His-D-Phe-Arg-Trp-Arg- Cys]-Ala-His-D-Phe-Arg-Trp-Arg]] (cyclo(AH[dF]RWRCAH[dF]RWRC); disulfide 7-14)	5	
		C[C@@H]1NC(=O)[C@@H]2CSSC[C@H](NC(=O)[C@H](CCCNC(=N)N)NC(=O)[C@H](CCCNC(=N)N)NC(=O)[C@H](CCC(=O)O)NC(=O)[C@H](CCCNC(=N)N)NC1=O)C(=O)N1CSC[C@H]1C(=O)N[C@@H](Cc1c[nH]cn1)C(=O)N[C@H](Cc1ccccc1)C(=O)N[C@@H](Cc1c[nH]cn1)C(=O)N[C@@H](Cc1c[nH]c3ccccc13)C(=O)N2 [Chem. 113, c[c[Cys-THAZ-His-D-Phe-His-Trp- Cys]-Ala-Arg-Glu-Arg-Arg]] (cyclo(ARERRC[Thz]H[dF]HWC); disulfide 6-12)	2112	0.02 nM
		C[C@@H]1NC(=O)[C@H](C)NC(=O)[C@H](CCCN)NC(=O)[C@H](CCCCN)NC(=O)[C@@H]2CSSC[C@H](NC(=O)[C@H](Cc3c[nH]c4ccccc34)NC1=O)C(=O)N1CSC[C@H]1C(=O)N[C@@H](Cc1c[nH]cn1)C(=O)N[C@H](Cc1ccccc1)C(=O)N[C@@H](Cc1c[nH]cn1)C(=O)N[C@@H](Cc1c[nH]c3ccccc13)C(=O)N2 [Chem. 115, c[c[Cys-THAZ-His-D-Phe-His-Trp-C ys]-Lys-Orn-Ala-Ala-Trp]] (cyclo(AAWC[Thz]H[dF]HWCK[Orn]); disulfide 4-10)	1340	0.1 nM
		C[C@@H]1NC(=O)[C@H](C)NC(=O)[C@H](CCCN)NC(=O)[C@H](CCCN)NC(=O)[C@@H]2CSSC[C@H](NC(=O)[C@H](Cc3c[nH]c4ccccc34)NC1=O)C(=O)N1CSC[C@H]1C(=O)N[C@@H](Cc1c[nH]cn1)C(=O)N[C@H](Cc1ccccc1)C(=O)N[C@@H](Cc1c[nH]cn1)C(=O)N[C@@H](Cc1c[nH]c3ccccc13)C(=O)N2 [Chem. 116, c[c[Cys-THAZ-His-D-Phe-His-Trp- Cys]-Orn-Orn-Ala-Ala-Trp]] (cyclo(AAWC[Thz]H[dF]HWC[Orn][Orn]); disulfide 4-10)	1927	0.12 nM
		C[C@@H]1NC(=O)[C@H](C)NC(=O)[C@H](CCCCN)NC(=O)[C@H](CCCCN)NC(=O)[C@H]2NC(=O)[C@H](Cc3c[nH]c4ccccc34)NC(=O)[C@H](Cc3c[nH]cn3)NC(=O)[C@@H](Cc3ccccc3)NC(=O)[C@H](Cc3c[nH]cn3)NC(=O)[C@@H]3CSCN3C(=O)[C@H](CSSC2(C)C)NC(=O)[C@H](Cc2c[nH]c3ccccc23)NC1=O [Chem. 117, c[c[Cys-THAZ-His-D-Phe-His-Trp- Pen]-Lys-Lys-Ala-Ala-Trp]] (cyclo(AAWC[Thz]H[dF]HW[Pen]KK); disulfide 4-10)	841	0.2 nM
		N=C(N)NCCC[C@@H]1NC(=O)[C@H](CCCCN)NC(=O)[C@@H]2CSSC[C@H](NC1=O)C(=O)N1CSC[C@H]1C(=O)N[C@@H](Cc1c[nH]cn1)C(=O)N[C@H](Cc1ccccc1)C(=O)N[C@@H](Cc1c[nH]cn1)C(=O)N[C@@H](Cc1c[nH]c3ccccc13)C(=O)N2 [Chem. 118, c[c[Cys-THAZ-His-D-Phe-His-Trp- Cys]-Lys-Arg]] (cyclo(CKRC[Thz]H[dF]HW); disulfide 1-4)	1240	
		C[C@@H]1NC(=O)[C@@H]2CSSC[C@H](NC(=O)[C@H](CCCNC(=N)N)NC(=O)[C@H](CCCN)NC(=O)[C@H](CCC(=O)O)NC(=O)[C@H](CCCN)NC1=O)C(=O)N1CSC[C@H]1C(=O)N[C@@H](Cc1c[nH]cn1)C(=O)N[C@H](Cc1ccccc1)C(=O)N[C@@H](Cc1c[nH]cn1)C(=O)N[C@@H](Cc1c[nH]c3ccccc13)C(=O)N2 [Chem. 119, c[c[Cys-THAZ-His-D-Phe-His-Trp- Cys]-Ala-Orn-Glu-Orn-Arg]] (cyclo(A[Orn]E[Orn]RC[Thz]H[dF]HWC); disulfide 6-12)	1660	0.06 nM
0.24 nM		C[C@@H]1NC(=O)[C@@H]2CSSC[C@H](NC(=O)[C@H](CCCNC(=N)N)NC(=O)[C@@H](CCCCN)NC(=O)[C@@H](CCCCN)NC(=O)[C@H](Cc3c[nH]cn3)NC1=O)C(=O)N1CCC[C@H]1C(=O)N[C@@H](Cc1c[nH]cn1)C(=O)N[C@H](Cc1ccccc1)C(=O)N[C@@H](Cc1c[nH]cn1)C(=O)N[C@@H](Cc1c[nH]c3ccccc13)C(=O)N2 [Chem. 121, c[c[Cys-Pro-His-D-Phe-His-Trp-Cys]- Ala-His-D-Lys-D-Lys-Arg]] (cyclo(AH[dK][dK]RCPH[dF]HWC); disulfide 6-12)	786	

Structure (SMILES)	EC50 (human MC4R [1]; [3])	Ki (human MC4R [2])	MC1R/MC4R cAMP EC50 ratio (human MC4R [1])	EC50 (human MC4R [1])
N=C(N)NCCC[C@@H]1NC(=O)[C@@H](Cc2ccccc2)NC(=O)[C@H](Cc2c[nH]cn2)NC(=O)CNC(=O)[C@@H]2CSSC[C@H](NC(=O)[C@H](Cc3c[nH]c4ccccc34)NC1=O)C(=O)NCC(=O)N[C@@H](Cc1c[nH]cn1)C(=O)N[C@H](Cc1ccccc1)C(=O)N[C@@H](CCCNC(=N)N)C(=O)N[C@@H](Cc1c[nH]c3ccccc13)C(=O)N2 [Chem. 2, c[c[Cys-Gly-His-D-Phe-Arg-Trp-Cys]- Gly-His-D-Phe-Arg-Trp]] (cyclo(CGH[dF]RWCGH[dF]RW); disulfide 1-7)	0.01 nM	0.07 nM	154	
